The values that follow come from patent US20040102423A1, “Spironolactone and angiotensin II antagonist combination therapy for treatment of congestive heart failure” (G.D. Searle & Co., priority 1995, published 2004).

Structures are written as SMILES. Read-outs that look alike come from different tables or passages of the source. A value given as a limit tells only on which side of the number the result lay.

For one assay, the system named is pressor response to AII. As to the kind of experiment: Assay C: In vivo intragastric pressor assay response for AII antagonists. On the set-up: species or system Sprague-Dawley rats. To be noted: for inhibition in vivo at 30 mg/kg: read-out: Assay C Inhibition.
The target in assay [1] is angiotensin II AT1 receptor. Briefly: Assay A: Angiotensin II binding activity, rat uterine membrane preparation, 125I-AII displacement. The procedure:
Assay A: Antiotensin II Binding Activity
Compounds of the invention were tested for ability to bind to the smooth muscle angiotensin II receptor using a rat uterine membrane preparation. […] Rat uterine membranes were prepared from fresh tissue. All procedures were carried out at 4° C. Uteri were stripped of fat and homogenized in phosphate-buffered saline at pH 7.4 containing 5 mM EDTA. The homogenate was centrifuged at 1500×g for 20 min., and the supernatant was recentrifuged at 100,000×g for 60 min. The pellet was resuspended in buffer consisting of 2 mM EDTA and 50 mM Tris-HCl (pH 7.5) to a final protein concentration of 4 mg/ml. […] The reaction was initiated by the addition of membrane protein and the mixture was incubated at 25° C. for 60 min. The incubation was terminated with ice-cold 50 mM Tris-HCl (pH 7.5) and the mixture was filtered to separate membrane-bound labelled peptide from the free ligand. The incubation tube and filter were washed with ice-cold buffer. Filters were assayed for radioactivity in a Micromedic gamma counter. Nonspecific binding was defined as binding in the presence of 10 μM of unlabelled AII. Specific binding was calculated as total binding minus nonspecific binding. […] Binding data were analyzed by a nonlinear least-squares curve fitting program.

Setting [2] is: in vivo pressor response, 30 mg/kg intraduodenally.
[3] abbreviates: Rattus norvegicus, intraduodenal, in vivo pressor response, 30 mg/kg intraduodenally.
[4] abbreviates: Rattus norvegicus, po, in vivo pressor response, 3 mg/kg intragastrically.
The mark [5] stands for this setting: in vivo pressor response, 3 mg/kg intragastrically.

For orientation: IC50 means the point on the concentration scale where inhibition reaches its midpoint. A high value points to lower potency.

For the compound `COC(=O)[C@@H]1CC2=CC(=O)CC[C@]2(C)C23O[C@@H]2C[C@@]2(C)[C@@H](CC[C@@]2(O)CCC(=O)O)[C@H]13.[K+]` (stereo partly shown) [Compound 5], in the assay with pressor response to AII (Rattus norvegicus, intraduodenal), the inhibition in vivo at 30 mg/kg came to 38%. The “Assay C Duration” value in the assay on pressor response to AII (setting [2]) lay in the range of 20 to 30 min. In addition, the half-inhibitory concentration (IC50) in assay [1] stood at 200 nM.
For `C[C@]12CCC(=O)C=C1C1CC1[C@H]1[C@@H]3CC[C@@]4(CCC(=O)O4)[C@@]3(C)CC3O[C@]312` (stereo partly shown) [Compound 9], the inhibition in vivo at 30 mg/kg in the assay with pressor response to AII (setting [3]) was determined as 80%. Also, the inhibition in vivo at 100 mg/kg with pressor response to AII (Rattus norvegicus, intraduodenal, in vivo pressor response, 100 mg/kg intraduodenally) was determined as 100%. In addition, the “Assay C Duration” value came to 75 min in the assay with pressor response to AII (setting [2]) and 130 min in the assay on pressor response to AII (in vivo pressor response, 100 mg/kg intraduodenally). The compound further came in with a half-maximal inhibitory concentration (IC50) in assay [1] of 700 nM.
As to `CCOC(=O)[C@@H]1CC2=CC(=O)CC[C@]2(C)C23O[C@@H]2C[C@@]2(C)[C@@H](CC[C@@]24CCC(=O)O4)[C@H]13` (stereo partly shown) [Compound 10], the inhibition in vivo at 3 mg/kg in the assay on pressor response to AII (Rattus norvegicus, intraduodenal, in vivo pressor response, 3 mg/kg intraduodenally) stood at 86%. The inhibition in vivo at 30 mg/kg in the assay on pressor response to AII (setting [3]) is 100%. In addition, the “Assay C Duration” value stood at 100 min in the assay with pressor response to AII (in vivo pressor response, 3 mg/kg intraduodenally) and 240 min in the assay on pressor response to AII (setting [2]). Further, the IC50 in assay [1] turned out to be 4.9 nM.
Regarding `CCCCc1nc2c(O)nnc(CCC)c2n1Cc1ccc(-c2ccccc2-c2nnn[nH]2)cc1` [Compound 125], the inhibition in vivo at 3 mg/kg with pressor response to AII (setting [4]) turned out to be 35%. For the same compound, the “Assay C Duration” value in the assay on pressor response to AII (setting [5]) is more than 240 min.
`CCCCc1nc(CCCC)n(Cc2ccc(-n3ccc(-c4nnn[nH]4)c3)cc2)n1` [Compound 153] had an inhibition in vivo at 3 mg/kg in the assay on pressor response to AII (setting [4]) of 25%. Also, in the assay with pressor response to AII (setting [5]), the “Assay C Duration” value is more than 180 min. In assay [1], the IC50 is 13 nM.
In the assay with pressor response to AII (setting [4]), `CCCCn1nc(C(O)CCC)nc1Cc1ccc(-c2ccccc2-c2nnn[nH]2)nc1` (stereo not shown) [Compound 170] returned an inhibition in vivo at 3 mg/kg of 40%. In addition, the “Assay C Duration” value in the assay with pressor response to AII (setting [5]) is more than 180 min. The IC50 in assay [1] stood at 26 nM.
Taken in the same sequence, the figures for `CCCCn1nc(C(=O)CCC)nc1Cc1ccc(-c2ccccc2-c2nnn[nH]2)nc1` [Compound 171] were 0%, 0 min and 28 nM.
Compound `CCn1nc(C(C)(F)F)nc1Cc1ccc(-c2ccccc2-c2nnn[nH]2)nc1` [Compound 175] displayed an inhibition in vivo at 3 mg/kg in the assay with pressor response to AII (setting [4]) of 0%. Further, the “Assay C Duration” value with pressor response to AII (setting [5]) turned out to be 0 min. The compound also yielded an IC50 in assay [1] of 27 nM.
Taken in the same sequence, the figures for `CCCCn1nc(C(C)(F)F)nc1Cc1ccc(-c2ccccc2-c2nnn[nH]2)nc1` [Compound 177] were 15%, 180 min and 26 nM.
Taken in the same sequence, the figures for `CCCn1nc(C(F)(F)CCC)nc1Cc1ccc(-c2ccccc2-c2nnn[nH]2)nc1` [Compound 180] were 25%, 180 min and 20 nM.
Taken in the same sequence, the figures for `CCCCn1nc(C(F)(F)CCC)nc1Cc1ccc(-c2ccccc2-c2nnn[nH]2)nc1` [Compound 181] were 20%, 180 min and 21 nM.
In turn, `CCCCn1nc(C(OC)OC)nc1Cc1ccc(-c2ccccc2-c2nnn[nH]2)nc1` [Compound 186] had an inhibition in vivo at 3 mg/kg in the assay with pressor response to AII (setting [4]) of 25%. Moreover, in the assay with pressor response to AII (setting [5]), the “Assay C Duration” value stood at 18 min. In addition, the IC50 in assay [1] is 38 nM.
For `CCCCn1nc(C(C)(OC)OC)nc1Cc1ccc(-c2ccccc2-c2nnn[nH]2)nc1` [Compound 193] the same measures were 10%, 180 min and 11 nM.
`CCCCn1cc(CCC(C)C)n(Cc2ccc(-c3ccccc3-c3nnn[nH]3)nc2)c1=O` [Compound 200]: the inhibition in vivo at 3 mg/kg with pressor response to AII (setting [4]) stood at 45%. In addition, in the assay with pressor response to AII (setting [5]), the “Assay C Duration” value was more than 180 min. In assay [1], this compound returned an IC50 of 20 nM.
`CCCCn1cc(CCC2CC2)n(Cc2ccc(-c3ccccc3-c3nnn[nH]3)nc2)c1=O` [Compound 204] had an inhibition in vivo at 3 mg/kg in the assay with pressor response to AII (setting [4]) of 75%. In addition, the “Assay C Duration” value in the assay on pressor response to AII (setting [5]) was more than 180 min. Moreover, the IC50 in assay [1] was 16 nM.
For `CCCCc1cn(CC(C)C)c(=O)n1Cc1ccc(-c2ccccc2-c2nnn[nH]2)nc1` [Compound 208] the same measures were 50%, more than 180 min and 22 nM.
In assay [1], `CCCCc1cn(CCC2CCCC2)c(=O)n1Cc1ccc(-c2ccccc2-c2nnn[nH]2)nc1` [Compound 222] showed an IC50 of 5 nM.
Same read-out and setting: the value for `CCCCc1cn(C2C3CC4CC(C3)CC2C4)c(=O)n1Cc1ccc(-c2ccccc2-c2nnn[nH]2)nc1` (stereo not shown) [Compound 224] was 91 nM; that for `CCCCc1cn(C23CC4CC(CC(C4)C2)C3)c(=O)n1Cc1ccc(-c2ccccc2-c2nnn[nH]2)nc1` [Compound 225] was 160 nM; that for `CCCCc1cn(-c2ccccc2)c(=O)n1Cc1ccc(-c2ccccc2-c2nnn[nH]2)nc1` [Compound 226] was 93 nM.
On the same count and under the same terms, next, `CCCCc1cn(CCCC)c(=O)n1Cc1ccc(-c2ccncc2-c2nnn[nH]2)cc1` [Compound 237]: 3.6 nM; `CCCCc1cn(-c2ccccc2C(C)(C)C)c(=O)n1Cc1ccc(-c2ccccc2-c2nnn[nH]2)nc1` [Compound 240]: 120 nM; `CCCCc1cn(-c2c(C)cccc2Cl)c(=O)n1Cc1ccc(-c2ccccc2-c2nnn[nH]2)nc1` [Compound 242]: 110 nM.
The same measure, in the same setting: next, `CCCCc1cn(-c2c(C)cc(C)cc2C)c(=O)n1Cc1ccc(-c2ccccc2-c2nnn[nH]2)nc1` [Compound 243]: 250 nM; `CCCCc1cn(-c2c(CC)cccc2CC)c(=O)n1Cc1ccc(-c2ccccc2-c2nnn[nH]2)nc1` [Compound 245]: 98 nM.
In the case of `CCCCc1nc(CCCC)n(Cc2ccc(-c3ccccc3C(=O)O)nc2)n1` [Compound 251], in assay [1], the IC50 was determined as 25 nM. This IC50 lies about 3.9-fold lower than the previous one.
On to `CCCCc1nc(CCCC)n(Cc2ccc(-c3ccccc3-c3nnn[nH]3)nc2)n1` [Compound 252], for which, in assay [1], the IC50 was 13 nM.
Same read-out and setting: the value for `CCCCc1nc(CCCC)n(Cc2ccc(-c3cccnc3-c3nnn[nH]3)cc2)n1` [Compound 253] was 2.6 nM; that for `CCCCc1nc(CCCC)n(Cc2ccc(-c3ccncc3-c3nnn[nH]3)cc2)n1` [Compound 254] was 72 nM; that for `CCCCc1nc(C(F)(F)CCC)n(Cc2ccc(-c3ccccc3-c3nnn[nH]3)nc2)n1` [Compound 259] was 54 nM.
`CCCCc1nc(CC(C)(C)C)nn1Cc1ccc(-c2ccccc2-c2nnn[nH]2)nc1` [Compound 260] showed a half-inhibitory concentration (IC50) in assay [1] of 220 nM. This IC50 lies about 4.1-fold higher than the previous one.
The same measure, in the same setting: the value for `CCCCc1nc(CC(C)(C)C)n(Cc2ccc(-c3ccccc3-c3nnn[nH]3)nc2)n1` [Compound 261] was 18 nM; that for `CCCCc1nc(CC(CC)CC)n(Cc2ccc(-c3ccccc3-c3nnn[nH]3)nc2)n1` [Compound 263] was 57 nM; that for `CCCCc1nc(CCc2ccccc2)nn1Cc1ccc(-c2ccccc2-c2nnn[nH]2)nc1` [Compound 264] was 11 nM.
Turning to `CCCCc1nc(CCc2ccccc2)n(Cc2ccc(-c3ccccc3-c3nnn[nH]3)nc2)n1` [Compound 265], the IC50 in assay [1] was 110 nM. Against the preceding compound, the IC50 is about 10-fold higher.
Still for that read-out and setting: the value for `CCCCc1nc(C(=O)N(C)C(C)(C)C)nn1Cc1ccc(-c2ccccc2-c2nnn[nH]2)nc1` [Compound 266] was 290 nM; that for `CCCCc1nc(C(=O)NC)n(Cc2ccc(-c3ccccc3-c3nnn[nH]3)nc2)n1` [Compound 269] was 9.7 nM.
The same measure, in the same setting: next, `CCCCc1nc(-c2ccccc2)nn1Cc1ccc(-c2ccccc2-c2nnn[nH]2)nc1` [Compound 270]: 21 nM.
